From patent publication US4939133A, “N-substituted-2-hydroxy-α-oxo-benzeneacetamides and pharmaceutical compositions having activity as modulators of the arachidonic acid cascade” (Warner-Lambert Company, priority 1985, dated 1990)

Molecular target: T1, human leukocyte 5-lipoxygenase (Homo sapiens, UniProt P09917)
T1 construct: endogenous in cells; host or cells: leukocytes from fresh blood of normal adult men
T1 sequence (P09917 1-674): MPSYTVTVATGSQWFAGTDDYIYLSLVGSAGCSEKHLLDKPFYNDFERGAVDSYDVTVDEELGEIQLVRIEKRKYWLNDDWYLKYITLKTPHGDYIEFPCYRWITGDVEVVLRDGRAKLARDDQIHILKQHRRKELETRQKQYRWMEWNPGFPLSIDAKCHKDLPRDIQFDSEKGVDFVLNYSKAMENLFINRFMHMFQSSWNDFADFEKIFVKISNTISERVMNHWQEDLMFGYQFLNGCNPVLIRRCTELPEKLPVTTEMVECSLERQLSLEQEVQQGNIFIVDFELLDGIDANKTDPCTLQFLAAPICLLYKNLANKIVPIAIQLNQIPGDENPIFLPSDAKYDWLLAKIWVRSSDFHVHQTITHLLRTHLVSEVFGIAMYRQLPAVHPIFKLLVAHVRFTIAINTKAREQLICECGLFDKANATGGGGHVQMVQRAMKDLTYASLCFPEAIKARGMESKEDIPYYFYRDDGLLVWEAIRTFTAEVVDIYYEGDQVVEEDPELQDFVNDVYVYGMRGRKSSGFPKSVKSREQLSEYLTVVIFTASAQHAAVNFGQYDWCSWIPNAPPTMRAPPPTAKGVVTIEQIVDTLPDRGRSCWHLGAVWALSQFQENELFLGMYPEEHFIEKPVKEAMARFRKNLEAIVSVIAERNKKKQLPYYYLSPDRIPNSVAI
Assay: 5-Lipoxygenase inhibition in human leukocytes, 5-HETE formation (5LOA1, 5LOA in Table 6)
Assay type: cell-based
Conditions: 50% inhibition of 5-HETE formation, E -number means X 10^-no., read-out: IC50 (5LOA)
From the text: To Evaluate the Effect of Each Compounds as a 5-Lipoxygenase Inhibitor in Comparison to Standard Reference Agents in Human Leukocytes (5LOAl)
The purpose of this assay is to evaluate the activity of each compound as an inhibitor of human leukocyte 5-lipoxygenase.
Arachidonic acid and calcium ionophore A23187 are obtained from Sigma (St. Louis, MO). Silica gel plates, GF are obtained from Analtech (Newark, DE). Arachidonic acid, (1-^14 C) and 5-HETE (^3 H), 5-(S)-hydroxy-6-trans, 8,11,14-cis eicosatetraenoic acid, are obtained from New England Nuclear (Boston, MA). Six percent Dextran-70 in 0.9% NaCl is obtained from Cuffer Labs (Berkeley, CA).
Preparation of Leukocytes
Fresh blood from normal adult men who had not received any drugs for at least the previous five days is obtained by the Community Research Clinic (WL/PD) using venipuncture and collected into heparinized vacuotainer tubes. To every 100 ml of pooled blood is added 25 ml of dextran solution (6% dextran -70 in 0.9% sodium chloride containing 3% dextrose) and this is mixed gently in a plastic cylinder. The mixture is left to stand at room temperature for at least 90 minutes. The upper layer which is rich in leukocytes and platelets is then carefully decanted into 50 ml plastic tubes and centrifuged at about 100×g for eight minutes in and IEC centrifuge and rotor number 269 (about 600 rpm). The supernatant fluid is discarded and the pellet is resuspended in 10 ml of 0.87% ammonium chloride for exactly two minutes. This procedure is to lyse completely contaminating red blood cells. Leukocytes are then separated by centrifugation for ten minutes. The pellet is washed three times by suspension in 20 ml PBS (sodium chloride, 7.1 g; Na2 HPO4, 1.15 g; KH2 PO4,0.2 g, and KCl, 0.2 g/L) and centrifuged as before. The final pellet is suspended in PBS containing 0.87 mM CaCl2. Viability of the cells is then checked using trypan blue exclusion method and is found to be over 90%.
5-Lipoxygenase Enzyme Assay
Leukocyte cells in suspension (0.98 ml) are incubated with or without test compounds for five minutes at 37° C. in a shaking water bath. At this time a […] mixture is perpared per 1 ml of cell suspension: 100 mM arachidonic acid, 1 μl, 0.05 μCi ^14 C-arachidonic acid in 5 μl; 1 mM calcium ionophore A23187, 10 μl (1). This mixture is added and the incubation continued for five minutes. The reaction is stopped by adding four volumes of absolute ethanol and the mixture is kept in ice for 30 minutes. The floculated precipitate is separated by centrifugation at about 37,000×g for 20 minutes (Beckman Instruments rotor number 40). The alcohol extract is taken to dryness under a stream of nitrogen and the residue is dissolved in 100-200 μl absolute ethanol. At the time any turbidity is removed by centrifugation. An aliquot (25-50 μl) is applied onto 20×20 cm silica gel TLC plate and developed using the following solvent system: diethyl ether, petroleum ether (2040°C.),acetic acid (50:50: 1 v/v). Zones of 1 cm apart are scraped from the TLC plate and transferred to mini-vials. Methanol (0.5 ml) is added to dissolve the radioactivity adsorbed to the silica gel and scintillation fluid (H. P., Beckman), 5 ml is then added and vials are counted in a liquid scintillation counter. A sample of ^3 H-5-HETE is applied and used for the identification of the formed 5-HETE. Total radioactivity in the test as well as the control samples are normalized and the amount of 5-HETE present is calculated accordingly.
IC50 values are defined as the concentrations of test agents which caused a 50% inhibition of the formation of 5-HETE as compared to control and are determined by inspection of the concentration-response curves.

Molecule COc1ccc(CCc2ccc(NC(=O)c3ccc(C)cc3O)cc2)cc1OC [Example 46, N-[4-[2-(3,4-Dimethoxyphenyl)ethyl]phenyl]-2-hydroxy-4-methylbenzamide] has an IC50 of 500 nM.
